Measurements published in PMC10673511, “Design, Synthesis and Bioactivity Evaluation of Heterocycle-Containing Mono- and Bisphosphonic Acid Compounds” (Molecules, 2023).
≈ marks a conversion by molar mass, not a printed value. Like-named read-outs stand apart in the source and are kept apart here.

Assays:
Arabidopsis thaliana = assay: Arabidopsis growth inhibition assay (24-well plates, green channel pixel value); conditions: Arabidopsis thaliana, 240 h; for EC50: read-out: EC50 against Arabidopsis growth; for pest or weed control at 100 µg/mL: read-out: InR (%) against Arabidopsis
Brassica napus L. = assay: Pre-emergence herbicidal inhibition assay, Petri dish test, BN; format: in vivo; conditions: for EC50: Brassica napus, 168 h
Description: (§1) The pre-emergence activity of the compounds against monocot Echinochloa crus-galli (EC) and dicot Brassica napus L. (BN) was evaluated using the standard Petri dish test. The compounds were dissolved in DMF, emulsified with Tween-80 and diluted with water to form stock solutions, each of which was further diluted to a gradient of 100, 50, 25, 10 and 1 mg/L for test. The test solutions were added to Petri dishes lined with a filter paper, on which 10 seeds of EC and BN were placed. After cultured in an intelligent climate chamber with a humidity of 65% at 26 °C for 7 days, the corresponding EC50 values were calculated.

[1] = molecular target: recombinant E. coli DXR (EcDXR) (Escherichia coli, UniProt P45568); assay: biochemical; conditions: read-out: InR (%) on DXR enzyme
Sequence of recombinant E. coli DXR (EcDXR) (P45568 whole entry): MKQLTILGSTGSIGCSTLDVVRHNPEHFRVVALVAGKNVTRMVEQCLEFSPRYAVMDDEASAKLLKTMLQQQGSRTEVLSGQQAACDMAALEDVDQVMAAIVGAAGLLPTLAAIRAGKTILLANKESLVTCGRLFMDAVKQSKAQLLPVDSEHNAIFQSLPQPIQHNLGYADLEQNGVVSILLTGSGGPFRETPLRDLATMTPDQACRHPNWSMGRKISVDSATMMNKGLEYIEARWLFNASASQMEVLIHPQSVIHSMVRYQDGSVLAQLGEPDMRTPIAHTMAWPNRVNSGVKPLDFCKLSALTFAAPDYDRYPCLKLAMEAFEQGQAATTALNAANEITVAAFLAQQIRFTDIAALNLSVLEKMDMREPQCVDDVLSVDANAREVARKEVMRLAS

Echinochloa crus-galli = assay: Pre-emergence herbicidal inhibition assay, Petri dish test, EC; format: in vivo; conditions: for EC50: Echinochloa crus-galli, 168 h
Description: as §1

[2] = root, 7 days, read-out: EC50 BN Root
[3] = stalk, 7 days, read-out: EC50 BN Stalk
[4] = root, 7 days, read-out: EC50 EC Root
[5] = stalk, 7 days, read-out: EC50 EC Stalk

| SMILES | EC50 (Arabidopsis thaliana) [µg/mL] | pest or weed control at 100 µg/mL (Arabidopsis thaliana) [%] | melting point [°C] | EC50 (Brassica napus L.; read-out: EC50 BN Root) [µg/mL] | EC50 (Brassica napus L.; read-out: EC50 BN Stalk) [µg/mL] | inhibition at 100 µM [1] [%] | EC50 (Echinochloa crus-galli; read-out: EC50 EC Root) [µg/mL] | EC50 (Echinochloa crus-galli; read-out: EC50 EC Stalk) [µg/mL] | EC50 (Brassica napus L.; [2]) [µg/mL] | EC50 (Brassica napus L.; [3]) [µg/mL] | EC50 (Echinochloa crus-galli; [4]) [µg/mL] | EC50 (Echinochloa crus-galli; [5]) [µg/mL] | Relative activity ratio (BN root) (Brassica napus L.; relative to FOS) [fold] | Relative activity ratio (BN stalk) (Brassica napus L.; relative to FOS) [fold] | Relative activity ratio (EC root) (Echinochloa crus-galli; relative to FOS) [fold] | Relative activity ratio (EC stalk) (Echinochloa crus-galli; relative to FOS) [fold] |
| --- | --- | --- | --- | --- | --- | --- | --- | --- | --- | --- | --- | --- | --- | --- | --- | --- |
| Cc1n[nH]c(O)c1CCP(=O)(O)O [Compound 5a] | > 100 | 24 | 220 to 221 | > 100 | 32.8 (≈ 159 µM) | 11.9 | 54.1 (≈ 262 µM) | 68.5 (≈ 332 µM) |  |  |  |  |  |  |  |  |
| CCc1n[nH]c(O)c1CCP(=O)(O)O [Compound 5b] | > 100 | 26.5 | 217 to 218 | > 100 | > 100 | 12.9 | 86.7 (≈ 394 µM) | 92.2 (≈ 419 µM) |  |  |  |  |  |  |  |  |
| CCCc1n[nH]c(O)c1CCP(=O)(O)O [Compound 5c] | > 100 | 43.6 | 228 to 229 |  |  | 6.1 |  |  | > 100 | 48.2 (≈ 206 µM) | 76.3 (≈ 326 µM) | 10.6 (≈ 45.3 µM) |  |  |  |  |
| CC(C)c1n[nH]c(O)c1CCP(=O)(O)O [Compound 5d] | > 100 | 48.3 | 210 to 211 |  |  | 17.7 |  |  | > 100 | 96.9 (≈ 414 µM) | 32.1 (≈ 137 µM) | > 100 |  |  |  |  |
| Cc1n[nH]c(C)c1CCP(=O)(O)O [Compound 5e] | > 100 | 15.8 | > 250 | 63 (≈ 309 µM) | > 100 | 23 | > 100 | 59.6 (≈ 292 µM) |  |  |  |  |  |  |  |  |
| CCc1n[nH]c(CC)c1CCP(=O)(O)O [Compound 5f] | > 100 | 37.7 | > 250 |  |  | 32.4 |  |  | > 100 | > 100 | 71.6 (≈ 308 µM) | 31.4 (≈ 135 µM) |  |  |  |  |
| CCc1onc(O)c1CCP(=O)(O)O [Compound 6b] | > 100 | 46.5 |  | 70.1 (≈ 317 µM) | 65.8 (≈ 298 µM) | 19.5 | 24.7 (≈ 112 µM) | 36.1 (≈ 163 µM) |  |  |  |  |  |  |  |  |
| CCCc1onc(O)c1CCP(=O)(O)O [Compound 6c] | > 100 | 42 |  |  |  | 7.5 |  |  | 99.7 (≈ 424 µM) | 33.7 (≈ 143 µM) | 65.4 (≈ 278 µM) | 41.1 (≈ 175 µM) |  |  |  |  |
| CC(C)c1onc(O)c1CCP(=O)(O)O [Compound 6d] | 45.7 ± 4.8 (≈ 194 µM) | 100 |  |  |  | 17.3 |  |  | 67.5 (≈ 287 µM) | 38.2 (≈ 162 µM) | 40.1 (≈ 171 µM) | 25.7 (≈ 109 µM) | 0.5 | 0.9 | 1.0 | 1.5 |
| Cc1noc(C)c1CCP(=O)(O)O [Compound 6e] | > 100 | 12.3 | > 250 | > 100 | 68.4 (≈ 333 µM) | 12.1 | > 100 | 54.1 (≈ 264 µM) |  |  |  |  |  |  |  |  |
| CCc1noc(CC)c1CCP(=O)(O)O [Compound 6f] | > 100 | 13.4 | > 250 |  |  | 11.7 |  |  | > 100 | > 100 | > 100 | 41.7 (≈ 179 µM) |  |  |  |  |
| Cc1n[nH]c(O)c1CC(P(=O)(O)O)P(=O)(O)O [Compound 12a] | > 100 | 47.2 | > 250 |  |  | 13.7 |  |  | 51.3 (≈ 179 µM) | 87.1 (≈ 304 µM) | > 100 | 47.7 (≈ 167 µM) |  |  |  |  |
| CCc1n[nH]c(O)c1CC(P(=O)(O)O)P(=O)(O)O [Compound 12b] | > 100 | 29.6 | > 250 |  |  | 21.9 |  |  | 61.6 (≈ 205 µM) | 24.5 (≈ 81.6 µM) | 77.5 (≈ 258 µM) | 55.3 (≈ 184 µM) |  |  |  |  |
